Read-outs that look alike come from different tables or passages of the source.
Assays:
[1] = target: T1, Ab aggregates of AD brain homogenates (Homo sapiens, UniProt P05067); details: [125I]IMPY, values marked as from refs (20), (6), (15); cited from earlier work
T1 construct: to Ab aggregates of AD brain homogenates; from tissue; host or cells: post-mortem grey matter of AD patients, homogenised in PBS

[2] = log of partition coefficient between 1-Octanol and buffer; compounds marked as from ref (20); cited from earlier work
[3] = Partition coefficients, 1-octanol/buffer; type: physicochemical; details: log of partition coefficient between 1-Octanol and buffer (0.1 M phosphate, pH 7.4)
Experimental: Partition coefficients were measured by mixing the [^18F]tracer with 3 g each of 1-octanol and buffer (0.1 M phosphate, pH 7.4) in a test tube. The test tube was vortexed for 3 min at room temperature, followed by centrifugation for 5 min. Two weighed samples (0.5 g each) from the 1-octanol and buffer layers were counted in a well counter. The partition coefficient was determined by calculating the ratio of cpm/g of 1-octanol to that of buffer. Samples from the 1-octanol layer were re-partitioned until consistent partitions of coefficient values were obtained (usually the 3rd or 4th partition). The measurement was done in triplicate and repeated three times.

[4] = target: T1, Ab aggregates of AD brain homogenates; assay: Inhibition of [125I]IMPY binding to Aβ aggregates of AD brain homogenates; set-up: species or system human (AD patients)
Experimental: Postmortem brain tissues were obtained from AD patients at autopsy, and neuropathological diagnosis was confirmed by current criteria (NIA-Reagan Institute Consensus Group, 1997). Homogenates were then prepared from dissected gray matters from AD patients in phosphate buffered saline (PBS, pH 7.4) at the concentration of approximately 100 mg wet tissue/ml (motor-driven glass homogenizer with setting of 6 for 30 sec).
(§1) Binding assays were carried out in 12×75 mm borosilicate glass tubes. […] The mixture was incubated at 37° C. for 2 hr and the bound and the free radioactivity were separated by vacuum filtration through Whatman GF/B filters using a Brandel M-24R cell harvester followed by 2×3 ml washes of PBS at room temperature. Filters containing the bound ^125I ligand were assayed for radioactivity content in a gamma counter (Packard 5000) with 70% counting efficiency.
as §1, with “efficiency. […] The results of inhibition experiments were subjected to nonlinear regression analysis using EBDA by which Ki values were calculated.” for “efficiency.”

[5] = Periodic HPLC injection of purified [18F]8b (second peak formation); type: physicochemical; details: purified tracer injected periodically on HPLC after purification; attributed to E and Z isomers
Experimental: Radiolabeled [^18F]8b was prepared from the mesylate precursor in moderate radiochemical yield (23%) but unfortunately could not be prepared in good radiochemical purity. The formation of a second peak was evident within minutes of labeling. […] They attribute the formation of a second peak to the facile formation of E and Z isomers (30).
[^18F]8b from precursor 11: (HPLC conditions: Phenomenex Gemini C18 semi-prep column [(5.0×250 mm, 5 μm); Acetonitrile/water 60/40; flow rate 3 mL/min)
Retention time of ^18F-labeled product was 28.0 min., well separated from the major hydrolysis by-product (Rt=11.8 min.). The product was isolated in 23% radiochemical yield (decay corrected) and greater than 98% radiochemical purity. Purified [^18F]8b was injected periodically after purification. Formation of a second peak increased to 50% of the parent compound.

[6] = 1-octanol/buffer, read-out: logP

T1 sequence (P05067 672-713 limits assumed): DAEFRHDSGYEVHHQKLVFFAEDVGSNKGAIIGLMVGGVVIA

CNc1ccc(/C=C/c2nc3ccc(OCCF)cc3o2)cc1 [BF-168, reference compound]
Ki [1]: 6.4 nM

CNc1ccc(/C=C/c2ccc(OCCOCCF)cc2)cc1 [Compound 1a]
logP [2]: 2.53 | Ki [1]: 2.9 ± 0.2 nM

CNc1ccc(/C=C/c2ccc(OCCOCCOCCF)cc2)cc1 [Compound 1b]
logP [2]: 2.41 | Ki [1]: 6.7 ± 0.3 nM

CNc1ccc(/C=C/c2ccc(OCCOCCOCCOCCF)cc2)cc1 [Compound 1c]
logP [2]: 2.05 | Ki [1]: 4.4 ± 0.8 nM

CNc1ccc(/C=C/c2ccc(OCCOCCOCCOCCOCCF)cc2)cc1 [Compound 1d]
logP [2]: 2.27 | Ki [1]: 6.8 ± 0.8 nM

CNc1ccc(-c2nc3ccc(OCCOCCF)cc3s2)cc1 [Compound 5a, 2-[4′-(methylamino)phenyl]-6-[2-(2-fluoroethoxy)-ethoxy]benzothiazole]
logP [3, 6]: 3.04 | Ki [4]: 2.2 ± 0.5 nM

CNc1ccc(-c2nc3ccc(OCCOCCOCCF)cc3s2)cc1 [Compound 5b, 2-[4′-(methylamino)phenyl]-6-{2-[2-(2-fluoroethoxy)-ethoxy]ethoxy}benzothiazole]
logP [3, 6]: 3.04 | Ki [4]: 3.8 ± 0.5 nM

CNc1ccc(-c2nc3ccc(OCCOCCOCCOCCOCCOCCF)cc3s2)cc1 [Compound 5c, 2-[4′-(methylamino)phenyl]-6-{2-[2-(2-{2-[2-(2-fluoroethoxy)-ethoxy]ethoxy}ethoxy)ethoxy]ethoxy}benzothiazole]
logP [3, 6]: 2.99 | Ki [4]: 4.7 ± 0.9 nM

CNc1ccc(-c2nc3ccc(OCCOCCOCCOCCOCCOCCOCCOCCF)cc3s2)cc1 [Compound 5d, 2-[4′-(methylamino)phenyl]-6-[2-(2-{2-[2-(2-{2-[2-(2-fluoroethoxy)-ethoxy]ethoxy}ethoxy)ethoxy]ethoxy}ethoxy)ethoxy]benzothiazole]
Ki [4]: 9 ± 1.8 nM

CN(C)c1ccc(C=Cc2nc3ccc(OCCF)cc3o2)cc1 [Compound 8a, 6-(2-fluoroethoxy)-[2-(4-dimethylaminophenyl)-vinyl]-benzooxazol]
Ki [4]: 12 ± 0.5 nM

CN(C)c1ccc(C=Cc2nc3ccc(OCCOCCOCCF)cc3o2)cc1 [Compound 8b, 6-(2-(2-(2-fluoroethoxy)-ethoxy)-ethoxy)-[2-(4-dimethylaminophenyl)-vinyl]-benzooxazol]
logP [3, 6]: 2.93 | Ki [4]: 14.5 ± 5 nM

CN(C)c1ccc(/C=C/c2nc3ccc(OCCOCCOCCOCCOCCOCCF)cc3o2)cc1 [Compound 8c, 6-(2-(2-(2-(2-(2-(2-fluoroethoxy)-ethoxy)-ethoxy)-ethoxy)-ethoxy)-ethoxy)-[2-(4-dimethylaminophenyl)-vinyl]-benzooxazol]
Ki [4]: 10 ± 0.2 nM

CN(C)c1ccc(C=Cc2nc3ccc(OCCOCCOCCOCCOCCOCCOCCOCCF)cc3o2)cc1 [Compound 8d, 6-(2-(2-(2-(2-(2-(2-(2-(2-fluoroethoxy)-ethoxy)-ethoxy)-ethoxy)-ethoxy)-ethoxy)-ethoxy)-ethoxy)-[2-(4-dimethylaminophenyl)-vinyl]-benzooxazol]
Ki [4]: 6 ± 0.6 nM

CN(C)c1ccc(-c2cn3cc(OCCF)ccc3n2)cc1 [Compound 12a, 6-(2-fluoroethoxy)-2-(4-dimethylamino-)phenyl-imidazo [1,2-a]pyridine]
Ki [4]: 16 ± 2 nM

CN(C)c1ccc(-c2cn3cc(OCCOCCF)ccc3n2)cc1 [Compound 12b, 6-(2-fluoroethoxy-ethoxy)-2-(4-dimethylamino-)phenyl-imidazo[1,2-a]pyridine]
Ki [4]: 31 ± 9 nM

CN(C)c1ccc(-c2cn3cc(OCCOCCOCCF)ccc3n2)cc1 [Compound 12c, 6-(2-fluoroethoxy-ethoxy-ethoxy)-2-(4-dimethylamino-)phenyl-imidazo[1,2-a]pyridine]
logP [3, 6]: 2.69 | Ki [4]: 30 ± 2.5 nM

CN(C)c1ccc(-c2cn3cc(OCCOCCOCCOCCOCCOCCF)ccc3n2)cc1 [Compound 12d, 6-(2-fluoroethoxy-ethoxy-ethoxy-ethoxy-ethoxy-ethoxy)-2-(4-dimethylamino-)phenyl-imidazo[1,2-a]pyridine]
Ki [4]: 96 ± 14 nM

CN(C)c1ccc(-c2cn3cc(OCCOCCOCCOCCOCCOCCOCCOCCF)ccc3n2)cc1 [Compound 12e, 6-(2-fluoroethoxy-ethoxy-ethoxy-ethoxy-ethoxy-ethoxy-ethoxy-ethoxy)-2-(4-dimethylamino-) phenyl-imidazo[1,2-a]pyridine]
Ki [4]: 387 ± 12 nM

CN(C)c1ccc(-c2cn3cc(I)ccc3n2)cc1 [IMPY, 6-iodo-2-(4′-dimethylamino)phenyl-imidazo[1,2-a]pyridine, reference compound]
logP [3, 6]: 2.19

CNc1ccc(/C=C/c2ccc(O)cc2)cc1 [SB-13, reference compound]
logP [3]: 2.36

CN(C)c1ccc(/C=C/c2nc3ccc(OCCOCCOCC[18F])cc3o2)cc1 [[^18F]8b]
Formation of a second peak, of the parent compound [5]: 50%

Source: US20070031328A1, “Radiolabeled-pegylation of ligands for use as imaging agents” (priority 2005, published 2007)
